Data set [1] has as its target T1, HK2 (Homo sapiens, UniProt P52789).
T1 construct: made in house; host or cells: E. coli BL21 (DE3)
T1 sequence (P52789 1-917): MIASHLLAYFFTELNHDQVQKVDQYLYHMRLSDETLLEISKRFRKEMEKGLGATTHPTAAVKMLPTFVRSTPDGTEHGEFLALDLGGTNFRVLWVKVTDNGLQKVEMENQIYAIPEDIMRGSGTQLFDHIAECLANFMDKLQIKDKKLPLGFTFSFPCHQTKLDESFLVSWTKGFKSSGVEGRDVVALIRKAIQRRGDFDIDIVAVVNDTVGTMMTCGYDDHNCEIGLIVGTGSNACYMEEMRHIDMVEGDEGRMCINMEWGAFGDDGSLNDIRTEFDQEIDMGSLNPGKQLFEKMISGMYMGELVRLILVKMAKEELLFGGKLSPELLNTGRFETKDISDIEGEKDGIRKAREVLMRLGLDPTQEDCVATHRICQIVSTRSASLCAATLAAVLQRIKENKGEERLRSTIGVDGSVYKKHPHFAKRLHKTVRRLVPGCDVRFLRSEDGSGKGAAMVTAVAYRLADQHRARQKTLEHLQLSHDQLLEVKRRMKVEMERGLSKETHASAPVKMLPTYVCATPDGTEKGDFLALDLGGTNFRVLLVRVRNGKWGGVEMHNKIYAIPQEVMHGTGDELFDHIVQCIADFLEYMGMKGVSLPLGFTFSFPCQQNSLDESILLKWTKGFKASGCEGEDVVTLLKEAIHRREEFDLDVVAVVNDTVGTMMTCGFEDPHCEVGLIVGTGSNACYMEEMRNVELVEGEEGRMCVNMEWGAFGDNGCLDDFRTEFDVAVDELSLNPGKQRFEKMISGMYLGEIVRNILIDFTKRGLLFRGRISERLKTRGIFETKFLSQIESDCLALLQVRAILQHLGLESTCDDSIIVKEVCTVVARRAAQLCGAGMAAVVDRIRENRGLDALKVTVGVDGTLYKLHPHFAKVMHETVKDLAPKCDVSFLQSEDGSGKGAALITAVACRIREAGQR
Put plainly: Microscale thermophoresis (MST) assay. In kind it is binding. The note with it: labelled HK2 20 nM, 25 °C. The method, then: MST was used to analyze the binding affinity between potential ligands and receptors. The purified HK2 was labeled with the Monolith NT™ Protein Labeling Kit RED (Cat # L001) according to the supplied labeling protocol. Labelled HK2 was kept constant at 20 nM, and all tested samples were 1:1 diluted in a 20 mM HEPES (pH 7.4) and 0.05 (v/v) % Tween-20. After 10 min incubation at room temperature, samples were loaded into Monolith™ standard-treated capillaries. And the thermophoresis was measured at 25 °C after 30 min incubation on a Monolith NT.115 instrument (Germany). Furthermore, laser power was set to 20% or 40% using 30 sec on-time. The LED power was set to 100%. The dissociation constant Kd values were fitted by using the NTAnalysis software.
In general terms: MST reads how a fluorescent partner responds to local heating, with and without ligand.

Data set [2] has as its target T1, HK2. Kind of data set: In vitro enzyme inhibition assay (G6P-DH coupled, NADH 340 nm). In kind it is biochemical. The method, then:
Then 85 μL assay mix containing 100 mM Tris HCl pH 8.0, 5 mM MgCl2, 200 mM Glucose, 0.8 mM ATP, 1 mM NAD^+, 0.25 Units of G6P-DH, was added.

Details of data set [3]: method as in PMID 17551814. The note with it: dose range of 500-2000 mg/Kg in mice; cited from earlier work.
A further data set deals with SW480. Kind of data set: Cytotoxicity test (CCK-8). In kind it is cell-based. The note with it: Homo sapiens, SW480, 48 h. The method, then:
(§1) Met was used as a positive control. All experiments were performed in triplicate.

In a further data set the test system is Lovo. Put plainly: Cytotoxicity test (CCK-8). The note with it: Homo sapiens, 48 h. In kind it is cell-based. The procedure:
as §1

The next data set relates to MCF-7. Put plainly: Cytotoxicity test (CCK-8). In kind it is cell-based. The conditions noted are these: Homo sapiens, MCF7; MCF-7, 48 h. The method, then:
as §1

The next data set deals with SMMC-7721. Put plainly: Cytotoxicity test (CCK-8). The conditions noted are these: Homo sapiens, SMMC-7721, 48 h. In kind it is cell-based. The procedure:
as §1

A further data set deals with HCT116. Put plainly: Cytotoxicity test (CCK-8). In kind it is cell-based. The note with it: Homo sapiens, HCT-116; HCT116, 48 h. The procedure: as §1
A short description of data set [4]: Cytotoxicity test (CCK-8). In kind it is cell-based. The procedure:
as §1

[5] abbreviates: recombinant HK2, n.i means no enzyme inhibition, read-out: Enzyme IC50.
[6] abbreviates: recombinant HK2, n.i means no enzyme inhibition.

Where two headings read alike, the source gives them in different places.

For the compound `O=C(O)C(=O)CBr` [3-BrPA, 3-Bromopyruvate], at HK2 [1] (read-out: Kd), the Kd (commonly the free concentration of one partner at which half of the binding sites on the other are occupied at equilibrium, for simple one-to-one binding) came to 742 ± 96.8 µM. As for `N[C@H]1C(O)O[C@H](CO)[C@@H](O)[C@@H]1O` (stereo partly drawn) [D-Glucosamine], the IC50 (usually the concentration at which inhibition is half-maximal) at HK2 [2] (setting [5]) is more than 1000 µM.

In the case of `NCCC(O)(P(=O)(O)O)P(=O)(O)O` [Pamidronate], the “Enzyme IC50” value on HK2 [2] (setting [6]) is listed as “n.i”.

For the compound `O=C(CO)[C@@H](O)[C@H](O)[C@H](O)CO` [D-Fructose], the “Enzyme IC50” value on HK2 [2] (setting [6]) was “n.i ^C”. As to `O=C(O)c1cc(/N=N/c2ccc(S(=O)(=O)Nc3ccccn3)cc2)ccc1O` [Sulfasalazine], the IC50 at HK2 [2] (setting [5]) is more than 1000 µM. `O=C1O[C@H]([C@@H](O)CO)C(O)=C1O` [Vitamin C]: on HK2 [2] (setting [5]), the IC50 was more than 1000 µM. `O=CC[C@@H](O)[C@H](O)[C@H](O)CO` [2-DG, 2-Deoxyglucose]: the Kd entry on HK2 [1] was “No binding affinity”. The “therapeutic activity as a single agent” value in data set [3] is on record as “does not have significant therapeutic activity”. In the case of `[H]/N=C(\N/C(=N/[H])NCCCCCCNC(=N)NC(=N)Nc1ccc(Cl)cc1)Nc1ccc(Cl)cc1` [Chlorhexidine], the “Enzyme IC50” value at HK2 [2] (setting [6]) was “n.i”. For the compound `CN(C)C(=N)N=C(N)N` [Metformin], the IC50 with SW480, in the data set on Lovo, in the data set with MCF-7, in the data set on SMMC-7721 and with HCT116 was more than 1000 µM each time. In addition, the IC50 at 48 h was more than 1000 µM in [4] (African green monkey, Vero normal cells) and more than 1000 µM in data set [4] (human, LO2 normal cells). Moreover, the Kd at HK2 [1] (read-out: Kd) stood at 3930 ± 282 µM. For the compound `CNC[C@H](O)[C@@H](O)[C@H](O)[C@H](O)CO` [Meglumine], the IC50 against HK2 [2] is more than 1000 µM.

Source of the values: PMC5399312 (Journal of Experimental & Clinical Cancer Research : CR, 2017).
